According to patent US7807669B2, “Biaromatic compounds which activate PPARγ type receptors and cosmetic/pharmaceutical compositions comprised thereof” (Galderma Research & Development, priority 2002, dated 2010):

Legend:
Type in all cases: cell-based
PPARγ = biological target: T1, PPARγ (Homo sapiens, UniProt P37231); experiment: Crossed-curve PPAR transactivation assay (PPARγ); conditions: HeLN cells stably transfected with ERE-βGlob-Luc-SV-Neo and Gal-hPPARγ; crossed curves against reference agonist, Schild regression; n.a. means not active; read-out: PPAR gamma Kd app
T1 construct: The reporter is ERE-βGlob-Luc-SV-Neo
T1 sequence (P37231 238-505 limits assumed): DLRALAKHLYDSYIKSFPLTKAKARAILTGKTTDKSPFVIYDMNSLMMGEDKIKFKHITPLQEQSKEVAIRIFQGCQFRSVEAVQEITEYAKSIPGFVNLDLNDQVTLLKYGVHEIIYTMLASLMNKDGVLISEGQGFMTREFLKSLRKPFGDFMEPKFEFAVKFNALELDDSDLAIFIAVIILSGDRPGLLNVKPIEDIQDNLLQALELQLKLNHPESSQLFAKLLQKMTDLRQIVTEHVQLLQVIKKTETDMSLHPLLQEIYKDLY
Protocol: (§1) Activation of the receptors by an agonist (activator) in HeLN cells leads to the expression of a reporter gene, luciferase, which, in the presence of a substrate, generates light. The modulation of the receptors is measured by quantifying the luminescence produced after incubation of the cells in the presence of a reference agonist. The ligands will displace the agonist from its site. The measurement of the activity is performed by quantifying the light produced. This measurement makes it possible to determine the modulatory activity of the compounds according to the invention by determining the constant that is the affinity of the molecule for the receptor. Since this value can fluctuate depending on the basal activity and the expression of the receptor, it is referred to as Kd apparent (KdApp in nM).
(§2) To determine this constant, “crossed curves” for the test product, against a reference agonist, are prepared using a 96-well plate: 10 concentrations of the test product plus a concentration 0 are arranged in a line, and 7 concentrations of the agonist plus a concentration 0 are arranged in a column. This is 88 measurement points for 1 product and 1 receptor. The remaining 8 wells are used for repeatability controls.
(§3) Measurements are also taken for total agonist controls with the same products.
(§4) The HeLN cell lines used are stable transfectants containing the plasmids ERE-βGlob-Luc-SV-Neo (reporter gene) and PPAR (α, δ, γ) Gal-hPPAR. These cells are seeded in 96-well plates at a rate of 10 000 cells per well in 100 μl of DMEM medium without phenol red and supplemented with 10% of defatted calf serum. The plates are then incubated for 16 hours at 37° C. and 7% CO2.
(§5) The various dilutions of the test products and of the reference ligand are added at a rate of 5 μl per well. The plates are then incubated for 18 hours at 37° C. and 7% CO2. The culture medium is removed by turning over and 100 μl of a 1:1 PBS/luciferin mixture are added to each well. After 5 minutes, the plates are read using the luminescence reader.

PPARδ = biological target: T2, PPARδ (Homo sapiens, UniProt Q03181); experiment: Crossed-curve PPAR transactivation assay (PPARδ); conditions: HeLN cells stably transfected with ERE-βGlob-Luc-SV-Neo and Gal-hPPARδ; crossed curves against reference agonist, Schild regression; n.a. means not active; read-out: PPAR delta Kd app
T2 construct: The reporter is ERE-βGlob-Luc-SV-Neo
T2 sequence (Q03181 211-441 limits assumed): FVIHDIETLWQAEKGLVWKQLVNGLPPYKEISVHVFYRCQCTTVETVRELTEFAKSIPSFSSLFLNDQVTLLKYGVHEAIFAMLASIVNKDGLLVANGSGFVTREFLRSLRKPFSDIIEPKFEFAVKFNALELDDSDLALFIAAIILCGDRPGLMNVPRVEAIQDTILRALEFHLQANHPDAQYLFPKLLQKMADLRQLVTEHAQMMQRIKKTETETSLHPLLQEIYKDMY
Protocol: as §1
To determine this constant, “crossed curves” for the test product, against a reference agonist, are prepared using a 96-well plate: 10 concentrations of the test product plus a concentration 0 are arranged in a line, and 7 concentrations of the agonist plus a concentration 0 are arranged in a column. This is 88 measurement points for 1 product and 1 receptor. […]
The various dilutions of the test products and of the reference ligand are added at a rate of 5 μl per well. […] After 5 minutes, the plates are read using the luminescence reader.

PPARα = biological target: T3, PPARα (Homo sapiens, UniProt Q07869); experiment: Crossed-curve PPAR transactivation assay (PPARα); conditions: HeLN cells stably transfected with ERE-βGlob-Luc-SV-Neo and Gal-hPPARα; crossed curves against reference agonist, Schild regression; n.a. means not active; read-out: PPAR alpha Kd app
T3 construct: The reporter is ERE-βGlob-Luc-SV-Neo
T3 sequence (Q07869 239-468 limits assumed): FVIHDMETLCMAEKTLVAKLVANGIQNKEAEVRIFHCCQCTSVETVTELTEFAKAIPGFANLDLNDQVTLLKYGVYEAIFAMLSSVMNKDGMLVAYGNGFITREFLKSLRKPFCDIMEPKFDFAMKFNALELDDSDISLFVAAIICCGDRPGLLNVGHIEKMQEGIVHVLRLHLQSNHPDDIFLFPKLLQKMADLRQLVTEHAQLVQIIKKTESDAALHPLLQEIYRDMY
Protocol: as §1, §2, §3, §4, §5

Compound	Kd (PPARγ)	Kd (PPARδ)	Kd (PPARα)
CN(C(=O)Nc1ccc2ccccc2c1)c1cccc(-c2ccc(C[C@H](Nc3ccccc3C(=O)c3ccccc3)C(=O)O)cc2)c1 [Example 6, (S)-2-(2-benzoylphenylamino)-3-[3′-(1-methyl-3-naphthalen-2-ylureido)biphenyl-4-yl]propionic acid]	4 nM		
CCCCCCCNC(=O)N(C)c1cccc(-c2ccc(C[C@H](Nc3ccccc3C(=O)c3ccccc3)C(=O)NCCCCC)cc2)c1 [Example 8, (S)-2-(2-benzoylphenylamino)-3-[3′-(3-heptyl-1-methylureido)biphenyl-4-yl]-N-pentylpropionamide]	30 nM	500 nM	2000 nM
CCCCCCCNC(=O)N(C)c1cccc(-c2ccc(C[C@H](Nc3ccccc3C(=O)c3ccccc3)C(=O)N3CCC(C)CC3)cc2)c1 [Example 9, (S)-1-{4′-[2-(2-benzoylphenylamino)-3-(4-methylpiperid-1-yl)-3-oxopropyl]biphenyl-3-yl}-3-heptyl-1-methylurea]	30 nM		2000 nM
CCCCCCCNC(=O)N(C)c1cccc(-c2ccc(C[C@H](Nc3ccccc3C(=O)c3ccccc3)C(=O)N(Cc3ccccc3)Cc3ccccc3)cc2)c1 [Example 13, (S)-2-(2-benzoylphenylamino)-N,N-dibenzyl-3-[3′-(3-heptyl-1-methylureido)biphenyl-4-yl]propionamide]	8 nM		
CCCCCCCNC(=O)N(C)c1cccc(-c2ccc(C[C@H](Nc3ccccc3C(=O)c3ccccc3)C(=O)NCc3ccccn3)cc2)c1 [Example 18, (S)-2-(2-benzoylphenylamino)-3-[3′-(3-heptyl-1-methylureido)biphenyl-4-yl]-N-pyridin-2-ylmethylpropionamide]	60 nM		
CCCCCCCNC(=O)N(C)c1cccc(-c2ccc(C[C@H](Nc3ccccc3C(=O)c3ccccc3)C(=O)NCCN(C)C)cc2)c1 [Example 26, (S)-2-(2-benzoylphenylamino)-N-(2-dimethylaminoethyl)-3-[3′-(3-heptyl-1-methylureido)biphenyl-4-yl]propionamide]	60 nM		
CN(Cc1cccc(-c2ccc(C[C@H](Nc3ccccc3C(=O)c3ccccc3)C(=O)O)cc2)c1)C(=O)c1ccccc1 [Example 29, (S)-3-{3′-[(benzoylmethylamino)methyl]biphenyl-4-yl}-2-(2-benzoylphenylamino)propionic acid]	500 nM		2000 nM

Second part, the compound after the results:

Kd (PPARγ)	Kd (PPARδ)	Kd (PPARα)	Compound
30 nM			CCCCCCCNC(=O)N(C)c1cccc(-c2ccc(C[C@H](Nc3ccccc3C(=O)c3ccccc3)c3nnc(CCC)o3)cc2)c1 [Example 3, (S)-1-{4′-[2-(2-benzoylphenylamino)-2-(5-propyl[1,3,4]oxadiazol-2-yl)ethyl]biphenyl-3-yl}-3-heptyl-1-methylurea]
60 nM		2000 nM	CCCCCCCNC(=O)N(C)c1cccc(-c2ccc(C[C@H](Nc3ccccc3C(=O)c3ccccc3)C(=O)NCCNC(C)=O)cc2)c1 [Example 10, (S)—N-(2-acetylaminoethyl)-2-(2-benzoylphenylamino)-3-[3′-(3-heptyl-1-methylureido)biphenyl-4-yl]propionamide]
30 nM			CCCCCCCNC(=O)N(C)c1cccc(-c2ccc(C[C@H](Nc3ccccc3C(=O)c3ccccc3)C(=O)N3CCN(C)CC3)cc2)c1 [Example 16, (S)-1-{4′-[2-(2-benzoylphenylamino)-3-(4-methylpiperazin-1-yl)-3-oxopropyl]biphenyl-3-yl}-3-heptyl-1-methylurea]
30 nM			CCCCCCCNC(=O)N(C)c1cccc(-c2ccc(C[C@H](Nc3ccccc3C(=O)c3ccccc3)C(=O)N(C)Cc3ccccc3)cc2)c1 [Example 20, (S)-2-(2-benzoylphenylamino)-N-benzyl-3-[3′-(3-heptyl-1-methylureido)biphenyl-4-yl]-N-methylpropionamide]
15 nM		4000 nM	CCCCCCCNC(=O)N(C)c1cccc(-c2ccc(C[C@H](Nc3ccccc3C(=O)c3ccccc3)C(=O)N(C)CCc3ccccc3)cc2)c1 [Example 27, (S)-2-(2-benzoylphenylamino)-3-[3′-(3-heptyl-1-methylureido)biphenyl-4-yl]-N-methyl-N-phenethylpropionamide]
15 nM			CC(=CC(=O)c1ccccc1)N[C@@H](Cc1ccc(-c2cccc(CN(C)C(=O)c3ccccc3)c2)cc1)C(=O)O [Example 31, (S)-3-{3′-[(benzoylmethylamino)methyl]biphenyl-4-yl}-2-(1-methyl-3-oxo-3-phenylpropenylamino)propionic acid]
30 nM			CCCCCCCNC(=O)N(C)c1cccc(-c2ccc(C[C@H](Nc3ccccc3C(=O)c3ccccc3)C(=O)OCCCC)cc2)c1 [Example 39, butyl (S)-2-(2-benzoylphenylamino)-3-[3′-(3-heptyl-1-methylureido)biphenyl-4-yl]propionate]
